SMILES strings stand for the structures. Where a name gives a salt, the structure may show the parent alone.

The results in this text go back to US12595247B2, “Substituted pyrazolo piperidine carboxylic acids” (Bayer Aktiengesellschaft, priority 2020, dated 2026).

Data set [1] deals with T1, recombinant guanylate cyclase reporter cell line (Rattus norvegicus, UniProt P20595).
T1 construct: expressed in transfected cells; host or cells: recombinant reporter cell line
T1 sequence (P20595 1-619): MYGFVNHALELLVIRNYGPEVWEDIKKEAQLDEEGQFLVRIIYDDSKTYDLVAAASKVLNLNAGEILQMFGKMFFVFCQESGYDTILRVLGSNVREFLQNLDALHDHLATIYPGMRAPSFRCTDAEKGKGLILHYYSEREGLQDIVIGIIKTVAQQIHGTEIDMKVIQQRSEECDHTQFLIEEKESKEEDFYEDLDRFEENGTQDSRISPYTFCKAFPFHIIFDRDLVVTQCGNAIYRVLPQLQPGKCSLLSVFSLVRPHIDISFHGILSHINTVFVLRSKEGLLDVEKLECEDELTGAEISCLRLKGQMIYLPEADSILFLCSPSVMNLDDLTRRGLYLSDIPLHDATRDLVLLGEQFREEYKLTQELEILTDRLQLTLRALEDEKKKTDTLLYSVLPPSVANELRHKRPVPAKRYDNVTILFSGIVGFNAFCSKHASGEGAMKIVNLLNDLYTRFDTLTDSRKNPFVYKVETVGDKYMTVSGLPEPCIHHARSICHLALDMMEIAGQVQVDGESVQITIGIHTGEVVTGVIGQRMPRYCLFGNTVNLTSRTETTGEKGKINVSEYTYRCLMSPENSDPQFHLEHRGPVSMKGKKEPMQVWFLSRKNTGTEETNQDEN
T1 sequence (P19686 1-690 partner): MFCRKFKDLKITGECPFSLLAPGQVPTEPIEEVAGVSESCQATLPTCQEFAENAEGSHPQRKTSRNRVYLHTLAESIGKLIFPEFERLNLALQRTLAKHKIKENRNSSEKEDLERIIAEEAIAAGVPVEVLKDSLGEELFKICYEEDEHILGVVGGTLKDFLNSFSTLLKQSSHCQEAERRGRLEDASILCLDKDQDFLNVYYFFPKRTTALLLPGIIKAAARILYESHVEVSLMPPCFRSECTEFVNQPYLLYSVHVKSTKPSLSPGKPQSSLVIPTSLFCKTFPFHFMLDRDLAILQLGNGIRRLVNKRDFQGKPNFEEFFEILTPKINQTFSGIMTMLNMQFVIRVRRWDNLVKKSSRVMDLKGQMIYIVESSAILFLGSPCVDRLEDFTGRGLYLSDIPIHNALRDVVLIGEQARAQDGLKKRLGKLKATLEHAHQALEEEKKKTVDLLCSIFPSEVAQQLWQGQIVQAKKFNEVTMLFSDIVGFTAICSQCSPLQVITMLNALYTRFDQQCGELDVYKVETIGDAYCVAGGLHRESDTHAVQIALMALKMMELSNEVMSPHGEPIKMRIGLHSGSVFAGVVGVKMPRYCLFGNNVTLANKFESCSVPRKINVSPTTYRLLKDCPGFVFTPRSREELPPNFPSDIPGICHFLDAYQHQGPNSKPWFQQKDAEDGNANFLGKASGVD
Briefly: Effect on a recombinant guanylate cyclase reporter cell line. It is filed as cell-based. The conditions noted are these: for EC50: read-out: EC50 (half maximal effective concentration). Here is the method: B-1. Effect on a Recombinant Guanylate Cyclase Reporter Cell Line
The cellular activity of the compounds according to the invention was determined using a recombinant guanylate cyclase reporter cell line, as described in F. Wunder et al., Anal. Biochem. 339, 104-112 (2005).

A short description of data set [2]: Pharmacokinetic parameters following intravenous and oral administration in rats. It is filed as in vivo, male Wistar rats. From the text: (§1) • Klaus Witte, Kai Hu, Johanna Swiatek, Claudia Müssig, Georg Ertl and Björn Lemmer: Experimental heart failure in rats: effects on cardiovascular circadian rhythms and on myocardial β-adrenergic signaling. Cardiovasc Res 47 (2): […], 2000; Kozo Okamoto: Spontaneous hypertension in rats. Int Rev Exp Pathol 7: 227-270, 1969; Maarten van den Buuse: Circadian Rhythms of Blood Pressure, Heart Rate, and Locomotor Activity in Spontaneously Hypertensive Rats as Measured With Radio-Telemetry. Physiology & Behavior 55(4): 783-787, 1994. B-5. Determination of Pharmacokinetic Parameters Following Intravenous and Oral Administration
(§2) The pharmacokinetic parameters of the compounds according to the invention were determined in male Wistar rats and/or in female beagles and/or in cynomolgus monkeys and/or in male CD-1 mice. Intravenous administration in the case of mice and rats was carried out by means of a species-specific plasma/DMSO formulation, and in the case of dogs and monkeys by means of a water/PEG400/ethanol formulation. In all species, oral administration of the dissolved substance was performed via gavage, based on a water/PEG400/ethanol formulation.
(§3) An internal standard (which may also be a chemically unrelated substance) was added to the samples of the compounds of the invention, calibration samples and qualifiers, and there followed protein precipitation by means of acetonitrile in excess. Addition of a buffer solution matched to the LC conditions, and subsequent vortexing, was followed by centrifugation at 1000 g. The supernatant was analysed by LC-MS/MS using C18 reversed-phase columns and variable mobile phase mixtures. The substances were quantified via the peak heights or areas from extracted ion chromatograms of specific selected ion monitoring experiments.
(§4) The plasma concentration/time plots determined were used to calculate the pharmacokinetic parameters such as AUC, Cmax, t1/2 (terminal half-life), F (bioavailability), MRT (mean residence time) and CL (clearance), by means of a validated pharmacokinetic calculation program.
(§5) Since the substance quantification was performed in plasma, it was necessary to determine the blood/plasma distribution of the substance in order to be able to adjust the pharmacokinetic parameters correspondingly.
(§6) For this purpose, a defined amount of substance was incubated in K3 EDTA whole blood of the species in question in a rocking roller mixer for 20 min. After centrifugation at 1000 g, the plasma concentration was measured (by means of LC-MS/MS; see above) and determined by calculating the ratio of the Cblood/Cplasma value.

Data set [3] can be described thus: Pharmacokinetic parameters following intravenous and oral administration in dogs. It is filed as in vivo, female beagles. The conditions noted are these: for bioavailability: female, beagle, dog, plasma, read-out: F (bioavailability).
Description: as §1, §2, §3, §4, §5, §6

Setting [4] is: rats, intravenous administration.
The mark [5] stands for this setting: rats, oral administration (p.o.).

For the molecule `CC(C)CN1CCN(c2ccc(-c3ccc(Cl)cc3N3CCCC(n4ncc(C(=O)O)c4C(F)F)C3)cc2)CC1` (single isomer, unassigned; enantiomer 1) [Example 1, 1-[1-{4-Chloro-4′-[4-(2-methylpropyl)piperazin-1-yl][1,1′-biphenyl]-2-yl}piperidin-3-yl]-5-(difluoromethyl)-1H-pyrazole-4-carboxylic acid hydrochloride (Enantiomer 1)], the “MEC (minimum effective concentration)” value in data set [1] is 2.3 nM. Further, in data set [2] (setting [4]), the AUCnorm was 1.77 kg·h/L. Further, in data set [2] (setting [5]), the AUCnorm was 0.57 kg·h/L and the “F (bioavailability)” value stood at 31.4%.

In the case of `O=C(O)c1cnn(-c2cccc(-c3cc(Cl)ccc3-c3ccc(N4CCN(CC5CC5)CC4)cc3)n2)c1C(F)(F)F` [174 (WO2012/058132), reference compound], the bioavailability in data set [3] (oral administration (p.o.)) worked out at 41.6%; in data set [2] (male, Wistar, rat, plasma, po, rats, oral administration (p.o.), read-out: F (bioavailability)) it was 81.8%. In addition, the AUCnorm in data set [3] (intravenous administration) is 5.00 kg·h/L; in data set [3] (oral administration (p.o.)) it was 2.08 kg·h/L; in data set [2] (setting [4]), 0.77 kg·h/L; in data set [2] (setting [5]), 0.63 kg·h/L.

As for `CC(C)CN1CCN(c2ccc(-c3ccc(Cl)cc3N3CCCC(n4ncc(C(=O)O)c4C(F)F)C3)cc2)CC1` (single isomer, unassigned; enantiomer 2) [Example 3, 1-{1-[4-Chloro-4′-(4-isobutylpiperazin-1-yl)[biphenyl]-2-yl]piperidin-3-yl}-5-(difluoromethyl)-1H-pyrazole-4-carboxylic acid hydrochloride (Enantiomer 2)], in data set [1], the “MEC (minimum effective concentration)” value came out at 0.6 nM and the EC50 was found to be 2.7 nM.

Take `CC(C)CN1CCN(c2ccc(-c3ccc(Cl)cc3N3CCCC(n4ncc(C(=O)O)c4C(F)F)C3)cc2)CC1` (single isomer, unassigned; enantiomer 2) [Example 2, 1-[1-{4-Chloro-4′-[4-(2-methylpropyl)piperazin-1-yl][1,1′-biphenyl]-2-yl}piperidin-3-yl]-5-(difluoromethyl)-1H-pyrazole-4-carboxylic acid (Enantiomer 2)]: in data set [3] (oral administration (p.o.)), the bioavailability was found to be 82.8% and the AUCnorm amounted to 67.7 kg·h/L. Moreover, the AUCnorm in data set [3] (intravenous administration) came out at 81.7 kg·h/L. In data set [1], the “MEC (minimum effective concentration)” value is 1.0 nM and the EC50 was 8.6 nM. In addition, the “lower plasma clearance (CLplasma) in comparison to example 174 in WO 2012/058132” value in data set [2] (in rats as well as in dogs) is “up to 10 times”. In data set [2] (setting [4]), this molecule had an AUCnorm of 7.08 kg·h/L. Further, in data set [2] (setting [5]), the AUCnorm worked out at 3.77 kg·h/L and the “F (bioavailability)” value is listed as 53.3%.
